In article PMC6452685, “Lysyl-tRNA synthetase as a drug target in malaria and cryptosporidiosis” (Proceedings of the National Academy of Sciences of the …, 2019):

How the values were obtained:
[1] = molecular target: T1, CYP3A4 (Homo sapiens, UniProt P08684); assay: Fluorescence-based CYP inhibition, CYP3A4; type: in vitro ADME
T1 construct: purchased Cypex, Dundee, UK; host or cells: bacterial membranes (bactosomes)
Experimental: (§1) 4.7 F lu or e s ce nce-based CYP I nhibition usin g recombinantly expressed CYP b actosomes Fl uorogeni c C YP i nhi bi t i on s t udi es w ere c ondu ct ed at 37 °C i n 96-well, flat-bot t om, cl ear p ol y s t y rene pl at es. I ncubat i on mi xt ures cont ai ni ng Eas y C YP bact os omes (1000 pmol /ml , 10 mg /ml C y pex TM, Dundee, UK), fl uorogeni c substrate (Cypex TM) and 50 mM potas s i um phosphat e buffer (p H 7. 4) w er e prepared at t he fol l ow i ng fi nal concent rat i ons : C YP1A2, 5 pmol /ml + 35 µ M et hox y res orufi n (ER) ; CYP2C9, 10 pm ol/ml + 30 µM 7-methoxy-4-(tri fl uo romethy l )-coumari n (MFC ); C YP 2C 19, 5 pm ol /ml + 25 µM 3-cy ano-7-eth oxycoumarin (CEC); C YP 2D 6, 10 pmol /ml + 6 µM 7-meth oxy-4-(ami nomethy l )- coumari n (MAMC ); C YP 3A4, 10 pmol /ml + 1 µM diethoxyfluorescein (DEF) and 10 pmol /ml + 15 µM 7-benz y l ox y qui nol i ne (BQ ). […] 0125 ( 1A2 and 2C 9 onl y ) o r 0. 025 mg /ml (al l ot her i s oforms ). […] Positive control inhibitor, miconazole, was prepared as a 500 µM s olution in DMSO and similarly diluted.
(§2) For eac h i sofo rm, 2 20 µl of i ncubati on mi x was added to each wel l of a 96-well, flat-bot t om, cl ear pol y s t y rene pl at e. Al i quot s (5 µl) of each compound 5 conce ntrati on was then mi x ed wi th 220 µl of the incubation mix and pre-incubated at 37 °C for 5 min (final test compound concentration range: […]

[2] = test system: P. falciparum stage V gametocytes; assay: P. falciparum stage V gametocytes; type: cell-based; details: Plasmodium falciparum
Experimental: Thi s is a modification of the previously reported method (13). Asexual P. falciparum paras i t es (NF54) from a cl one G 3 w ere g row n at 5% hemat ocri t i n O+ human ery t hrocy t es i n s erum-contai ni ng compl ete medi a (RPMI 1640, g entami ci n 0. 05 mg /ml , hy pox anthi ne 0. 05 mg/ml, HEPES 38.4 mM , sodium bicarbonate 0.2% [w/v], D-glucose 0.2% [w/v], sodium hydroxide 3.4 mM, 11.9% [w/v] heat-inactivated human serum [O+] and at 37 °C un de r l ow-ox y g en con di t i ons (3% O2, 5% C O2, and 92% N2) and a paras i temi a between 0. 5% and 3%. Ri ng-stage parasites were synchronized at 3%
paras i t aemi a (d-6) w i t h 5% (w /v ) D-Sorbi tol . On day −4, 45ml of compl ete medi a was added to the
cul ture fl as k to s tres s vi a hematocri t drop now at 2. 5%. The o n d-3 an d d-2 onl y 45 ml o f the medi a
was substituted for fres h medi a.

[3] = test system: P. falciparum; assay: In vivo antimalarial efficacy in P. falciparum-infected SCID mice engrafted with human erythrocytes; details: SCID mouse, orally once a day for 4 d
Excerpt: The l ev el of each comp ound i n mouse bl ood was determi ned by UPLC -MS/MS as previously re port e d (18). Pharmacokinetic parameters were derived from the blood c oncent ration time curve usi ng PKsol uti ons software v 2.0 (Summi t Research Servi ces, USA).
The mi ce were i ntrav enous l y i nfected with 2×107 P. fa l ci p a rum Pf3D700 87/ N9-infected erythrocytes (day 0). On day 3 after infection, mice (n=2) were rand oml y al l ocated to treatments that were admi nis tered once a day for 4 cons ecuti v e day s by oral g av ag e at 10 ml/k g.
The compo und c onc entrati on v ers us ti me data were anal yzed by non-compartmental anal ysi s (NCA) usi ng Phoeni xR Ve rsi on 6.3 (Pha rsi ght Corporati on, M ountai n Vi ew, CA, USA).
Femal e i mmunodefi ci ent NOD-sc i d I L-2Rγnull mi ce (NSG) (Charl es Ri v er, France) of 25-28 g r b ody w ei g ht w ere hou s ed i n The A rt of D i s cov ery ani mal faci li t y at BIC

[4] = molecular target: T2, CYP2C9 (Homo sapiens, UniProt P11712); assay: Fluorescence-based CYP inhibition, CYP2C9; type: in vitro ADME
T2 construct: purchased Cypex, Dundee, UK; host or cells: bacterial membranes (bactosomes)
T2 sequence (P11712 whole entry): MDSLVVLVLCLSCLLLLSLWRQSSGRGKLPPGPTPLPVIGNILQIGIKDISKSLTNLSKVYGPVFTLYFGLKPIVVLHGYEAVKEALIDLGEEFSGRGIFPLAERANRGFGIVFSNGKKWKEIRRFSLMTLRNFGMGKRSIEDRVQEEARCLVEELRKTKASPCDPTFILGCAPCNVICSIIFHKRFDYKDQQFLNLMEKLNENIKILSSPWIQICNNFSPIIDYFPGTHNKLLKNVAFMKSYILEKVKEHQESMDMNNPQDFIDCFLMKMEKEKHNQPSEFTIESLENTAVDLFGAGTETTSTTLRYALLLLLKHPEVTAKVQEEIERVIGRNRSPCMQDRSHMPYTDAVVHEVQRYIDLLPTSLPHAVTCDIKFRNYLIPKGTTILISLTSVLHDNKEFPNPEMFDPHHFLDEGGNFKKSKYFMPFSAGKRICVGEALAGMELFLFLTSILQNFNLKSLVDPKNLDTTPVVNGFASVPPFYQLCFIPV
Experimental: as §1, §2

[5] = molecular target: T3, CYP1A2 (Homo sapiens, UniProt P05177); assay: Fluorescence-based CYP inhibition, CYP1A2; type: in vitro ADME
T3 construct: purchased Cypex, Dundee, UK; host or cells: bacterial membranes (bactosomes)
T3 sequence (P05177 whole entry): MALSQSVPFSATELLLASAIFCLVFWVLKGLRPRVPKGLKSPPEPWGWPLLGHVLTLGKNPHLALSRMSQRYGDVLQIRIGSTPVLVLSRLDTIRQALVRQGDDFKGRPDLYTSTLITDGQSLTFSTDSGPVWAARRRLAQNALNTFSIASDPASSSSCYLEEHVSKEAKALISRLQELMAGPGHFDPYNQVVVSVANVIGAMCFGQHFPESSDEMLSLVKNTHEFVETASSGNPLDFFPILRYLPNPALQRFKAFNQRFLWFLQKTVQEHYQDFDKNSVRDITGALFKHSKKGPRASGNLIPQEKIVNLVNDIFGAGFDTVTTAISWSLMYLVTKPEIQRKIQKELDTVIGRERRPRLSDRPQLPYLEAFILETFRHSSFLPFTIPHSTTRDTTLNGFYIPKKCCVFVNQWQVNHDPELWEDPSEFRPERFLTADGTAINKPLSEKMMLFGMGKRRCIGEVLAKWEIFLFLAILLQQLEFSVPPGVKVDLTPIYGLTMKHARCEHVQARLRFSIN
Experimental: as §1, §2

[6] = molecular target: PfKRS1 (Plasmodium falciparum, UniProt Q8IDJ8); assay: PfKRS1 hit discovery high-throughput screen (Kinase-Glo); type: biochemical; set-up: recombinant PfKRS1 (77–583 and 80–583); 6xHis (N); made in house; host or cells: E. coli Rosetta BL21(DE3), vector pAVA0421; details: single point 7.5 µM
Chain of PfKRS1 (Q8IDJ8 77-583): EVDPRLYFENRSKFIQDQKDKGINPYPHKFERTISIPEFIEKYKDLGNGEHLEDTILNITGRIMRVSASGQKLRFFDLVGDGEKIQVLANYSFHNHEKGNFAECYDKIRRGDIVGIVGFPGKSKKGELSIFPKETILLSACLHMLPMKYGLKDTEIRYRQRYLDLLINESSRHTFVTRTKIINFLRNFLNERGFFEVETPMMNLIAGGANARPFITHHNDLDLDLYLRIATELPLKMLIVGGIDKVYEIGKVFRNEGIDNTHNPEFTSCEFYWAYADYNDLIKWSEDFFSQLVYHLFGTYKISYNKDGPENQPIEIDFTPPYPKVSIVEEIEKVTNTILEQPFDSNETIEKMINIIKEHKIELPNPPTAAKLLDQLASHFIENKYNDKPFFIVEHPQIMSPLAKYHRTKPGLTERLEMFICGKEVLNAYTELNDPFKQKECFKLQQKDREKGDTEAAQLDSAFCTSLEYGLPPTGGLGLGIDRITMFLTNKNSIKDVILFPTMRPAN
Experimental: By using the luciferase ATP consumption (Kinase-Glo) assay platform with sub-Km substrate concentrations (thus biasing the assay toward identifying ATP-competitive inhibitors), the GlaxoSmithKline malaria actives set of ∼13,000 compounds (the Tres Cantos Antimalarial Set) ([19]) was screened against recombinant PfKRS1, leading to the discovery of a PfKRS1 inhibitor, compound 2 (Fig. 1). […] Compound 2 suffered from high metabolic instability (CLi > 50 mL⋅min^−1⋅g^−1 in mouse liver microsomes); however, in contrast to cladosporin 1, it was chemically tractable. […]
Assays were performed in 384-well format i n buffer (as des cri bed i n Tabl e S3), 60 µM lysine, and 75 nM PfKRS1. Compounds were initially screened at single point concentrations of 7.5 µM and hits were re peated three times. Plates were incubated for 180 mi ns at 37°C after a ddition of compounds. Reactions were terminated by the addi ti on of Ki nase-Glo® reagent and read on an E nVi si on pl ate reader (Perki nEl mer, W al tham, MA). […]
Us i ng the EnzChek as s ay pl atform the I C50 value for compound 5 was determined at saturating concentrati ons of both s ubs trates , 0. […] Assay ready plates containing different concent rations of compound 5 were prepa red usi ng an Ec ho® 5 50 acousti c di spenser (Labcyte Inc.). […]

T1 sequence (P08684 whole entry): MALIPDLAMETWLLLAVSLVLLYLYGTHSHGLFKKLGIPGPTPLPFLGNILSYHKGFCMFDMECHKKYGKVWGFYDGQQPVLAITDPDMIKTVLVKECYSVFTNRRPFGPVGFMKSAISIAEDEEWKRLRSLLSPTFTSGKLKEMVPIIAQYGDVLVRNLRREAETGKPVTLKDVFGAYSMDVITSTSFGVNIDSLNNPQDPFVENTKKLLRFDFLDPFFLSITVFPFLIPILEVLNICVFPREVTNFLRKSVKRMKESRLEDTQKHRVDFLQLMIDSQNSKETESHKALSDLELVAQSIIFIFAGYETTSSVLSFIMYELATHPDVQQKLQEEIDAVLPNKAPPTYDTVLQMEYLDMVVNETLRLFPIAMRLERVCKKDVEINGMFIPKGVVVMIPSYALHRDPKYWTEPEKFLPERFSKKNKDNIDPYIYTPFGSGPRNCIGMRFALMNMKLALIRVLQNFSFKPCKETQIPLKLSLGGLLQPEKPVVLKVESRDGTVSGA

Row | SMILES | IC50 [1] [µM] | EC50 [2] [µM] | AUCED90, estimated daily exposure in blood reducing parasitemia by 90% at day 5 [3] | ED90, daily oral dose reducing parasitemia by 90% at day 5 [3] [mg⋅kg^−1] | IC50 [4] [µM] | IC50 [5] [µM] | inhibition of PfKRS1 in high-throughput screen [6]
1 | O=C(NCC1(O)CCC(F)(F)CC1)c1cc(=O)c2cc(F)ccc2o1 [Compound 5] | > 10 | 9.9 | 11,000 ng⋅h⋅ml^−1⋅d^−1 | 1.5 | > 10 | > 10 | 
2 | O=C(NCC1CCCCC1)c1cc(=O)c2ccccc2o1 [Compound 2] |  |  |  |  |  |  | 71-91%
